According to patent publication US12497663B2, “Method of monitoring treatment” (LDN Pharma Limited, priority 2019, dated 2025):

Legend:
[1] = tested on: CD3+ cells; assay: Gene expression in CD3+ cells from CD14-ve PBMCs cultured with naltrexone (Illumina biochips); format: cell-based, human; settings: 4 h
Procedure: The RNA was then extracted from the cells using Trizol then isopropanol. The expression of the genes was measured using Illumina platform with biochips surveying the total human genome. […] The ratio of treated:untreated was calculated and the 25% change from untreated considered relevant.

[2] = tested on: CD3+/CD8+ cells (killer T-cells); assay: CD69 expression of PBMCs cultured with LDN or NTX (flow cytometry); format: cell-based; settings: 48 h
Procedure: Peripheral-blood mononuclear cells were isolated from whole blood or from the residue product of leukoreduction of whole blood from pathologically healthy donors using Histopaque-1077. The mononuclear fraction was harvested and red blood cell contamination removed by incubation in hypotonic ammonium chloride. Cells were washed in phosphate buffered saline (PBS) and platelet contamination removed by centrifugation at 200 g for 10 min, re-suspended at a concentration of 1×10^6 ml in RPMI-1640 culture medium. […] Peripheral-blood mononuclear cells were washed twice in wash buffer (PBS containing 1% (v/v) FBS and 0.09% (v/v) NaN3), and stained for 30 min at 4° C. with the relevant and stated antibodies for assessment of immune cell profile. Cells were washed in wash buffer and fixed in 4% paraformaldehyde for 20 min at 4° C. Expressions of the surface markers were analysed using a BD Science LSR II Flow Cytometer with dedicated proprietary software.
The activation state of CD3+ cells is indicated by CD69 expression; higher levels of CD69 expression correlate with increased CD3+ activation. CD3+ cells are T cell co-receptors that help to activate both the cytotoxic T cell (CD8+ naive T cells) and also T helper cells (CD4+ naive T cells). […] Thus, when LDN has completed its priming and the gene expressions are as determined in Example 1, the immune system is suitably boosted.

[3] = ratio treated:untreated, 10 nM naltrexone
[4] = ratio treated:untreated, 10 uM naltrexone

O=C1CC[C@@]2(O)[C@H]3Cc4ccc(O)c5c4[C@@]2(CCN3CC2CC2)[C@H]1O5 [NTX, morphinan-6-one,17-(cyclopropylmethyl)-4,5-epoxy-3,14-dihydroxy-(5a)]
ALDH4A1 N/U-score ([1]; 10 uM naltrexone): o (no change) | ASAP1 N/U-score ([1]; 10 uM naltrexone): o (no change) | BCLAF1 N/U-score ([1]; 10 uM naltrexone): o (no change) | BIRC3 N/U-score ([1]; 10 uM naltrexone): o (no change) | CASZ1 N/U-score ([1]; 10 uM naltrexone): o (no change) | CDC42SE2 N/U-score ([1]; 10 uM naltrexone): o (no change) | CDKN2AIP N/U-score ([1]; 10 uM naltrexone): o (no change) | DRAP1 N/U-score ([1]; 10 uM naltrexone): D (reduction) | DYNLL2 N/U-score ([1]; 10 uM naltrexone): o (no change) | EIF2S3 N/U-score ([1]; 10 uM naltrexone): o (no change) | EIF3E N/U-score ([1]; 10 uM naltrexone): o (no change) | EIF3M N/U-score ([1]; 10 uM naltrexone): o (no change) | EIF4B N/U-score ([1]; 10 uM naltrexone): o (no change) | EZR N/U-score ([1]; 10 uM naltrexone): o (no change) | FRG1 N/U-score ([1]; 10 uM naltrexone): o (no change) | H3F3A N/U-score ([1]; 10 uM naltrexone): o (no change) | HIST1H4C N/U-score ([1]; 10 uM naltrexone): o (no change) | HPCAL1 N/U-score ([1]; 10 uM naltrexone): o (no change) | ITGB2 N/U-score ([1]; 10 uM naltrexone): o (no change) | KCTD6 N/U-score ([1]; 10 uM naltrexone): o (no change) | LSM5 N/U-score ([1]; 10 uM naltrexone): o (no change) | MAP4K1 N/U-score ([1]; 10 uM naltrexone): D (reduction) | MORF4L1 N/U-score ([1]; 10 uM naltrexone): o (no change) | MTF1 N/U-score ([1]; 10 uM naltrexone): o (no change) | MYLK N/U-score ([1]; 10 uM naltrexone): o (no change) | NUCB1 N/U-score ([1]; 10 uM naltrexone): o (no change) | OR10A6 N/U-score ([1]; 10 uM naltrexone): o (no change) | PAH N/U-score ([1]; 10 uM naltrexone): o (no change) | PDCD4 N/U-score ([1]; 10 uM naltrexone): o (no change) | PECI N/U-score ([1]; 10 uM naltrexone): o (no change) | PRPF8 N/U-score ([1]; 10 uM naltrexone): o (no change) | PSME2 N/U-score ([1]; 10 uM naltrexone): o (no change) | PVRL2 N/U-score ([1]; 10 uM naltrexone): o (no change) | RASAL3 N/U-score ([1]; 10 uM naltrexone): D (reduction) | S100A6 N/U-score ([1]; 10 uM naltrexone): D (reduction) | SH3BGRL3 N/U-score ([1]; 10 uM naltrexone): o (no change) | SPOCK2 N/U-score ([1]; 10 uM naltrexone): o (no change) | WDR75 N/U-score ([1]; 10 uM naltrexone): o (no change) | YWHAZ N/U-score ([1]; 10 uM naltrexone): D (reduction) | ACTB LDN/UN [1, 3]: 1.560 | ALDH4A1 LDN/UN [1, 3]: 1.691 | ASAP1 LDN/UN [1, 3]: 0.701 | BCLAF1 LDN/UN [1, 3]: 0.653 | BIRC3 LDN/UN [1, 3]: 0.703 | CASZ1 LDN/UN [1, 3]: 1.775 | CDC42SE2 LDN/UN [1, 3]: 0.590 | CDKN2AIP LDN/UN [1, 3]: 0.702 | DRAP1 LDN/UN [1, 3]: 1.253 | DYNLL2 LDN/UN [1, 3]: 0.702 | EIF2S3 LDN/UN [1, 3]: 0.702 | EIF3E LDN/UN [1, 3]: 0.647 | EIF3M LDN/UN [1, 3]: 0.613 | EIF4B LDN/UN [1, 3]: 1.576 | EZR LDN/UN [1, 3]: 1.563 | FRG1 LDN/UN [1, 3]: 0.614 | H3F3A LDN/UN [1, 3]: 0.632 | HIST1H4C LDN/UN [1, 3]: 0.667 | HPCAL1 LDN/UN [1, 3]: 1.515 | ITGB2 LDN/UN [1, 3]: 1.528 | KCTD6 LDN/UN [1, 3]: 0.700 | LSM5 LDN/UN [1, 3]: 0.639 | MAP4K1 LDN/UN [1, 3]: 1.294 | MORF4L1 LDN/UN [1, 3]: 0.698 | MTF1 LDN/UN [1, 3]: 0.676 | MYLK LDN/UN [1, 3]: 1.659 | NUCB1 LDN/UN [1, 3]: 1.483 | OR10A6 LDN/UN [1, 3]: 1.570 | PAH LDN/UN [1, 3]: 1.687 | PDCD4 LDN/UN [1, 3]: 0.672 | PECI LDN/UN [1, 3]: 0.675 | PRPF8 LDN/UN [1, 3]: 1.543 | PSME2 LDN/UN [1, 3]: 0.700 | PVRL2 LDN/UN [1, 3]: 1.483 | RASAL3 LDN/UN [1, 3]: 1.365 | S100A6 LDN/UN [1, 3]: 1.397 | SH3BGRL3 LDN/UN [1, 3]: 1.479 | SPOCK2 LDN/UN [1, 3]: 1.487 | WDR75 LDN/UN [1, 3]: 0.705 | YWHAZ LDN/UN [1, 3]: 1.287 | ACTB NTX/UN [1, 4]: 1.241 | ALDH4A1 NTX/UN [1, 4]: 1.184 | ASAP1 NTX/UN [1, 4]: 0.826 | BCLAF1 NTX/UN [1, 4]: 0.800 | BIRC3 NTX/UN [1, 4]: 0.918 | CASZ1 NTX/UN [1, 4]: 1.130 | CDC42SE2 NTX/UN [1, 4]: 0.796 | CDKN2AIP NTX/UN [1, 4]: 0.766 | DRAP1 NTX/UN [1, 4]: 0.723 | DYNLL2 NTX/UN [1, 4]: 0.865 | EIF2S3 NTX/UN [1, 4]: 0.756 | EIF3E NTX/UN [1, 4]: 0.910 | EIF3M NTX/UN [1, 4]: 0.757 | EIF4B NTX/UN [1, 4]: 1.123 | EZR NTX/UN [1, 4]: 1.079 | FRG1 NTX/UN [1, 4]: 0.773 | H3F3A NTX/UN [1, 4]: 0.758 | HIST1H4C NTX/UN [1, 4]: 0.836 | HPCAL1 NTX/UN [1, 4]: 0.849 | ITGB2 NTX/UN [1, 4]: 0.942 | KCTD6 NTX/UN [1, 4]: 0.774 | LSM5 NTX/UN [1, 4]: 0.839 | MAP4K1 NTX/UN [1, 4]: 0.726 | MORF4L1 NTX/UN [1, 4]: 0.772 | MTF1 NTX/UN [1, 4]: 0.771 | MYLK NTX/UN [1, 4]: 1.241 | NUCB1 NTX/UN [1, 4]: 1.148 | OR10A6 NTX/UN [1, 4]: 1.235 | PAH NTX/UN [1, 4]: 1.183 | PDCD4 NTX/UN [1, 4]: 0.779 | PECI NTX/UN [1, 4]: 1.043 | PRPF8 NTX/UN [1, 4]: 1.174 | PSME2 NTX/UN [1, 4]: 0.877 | PVRL2 NTX/UN [1, 4]: 1.102 | RASAL3 NTX/UN [1, 4]: 0.713 | S100A6 NTX/UN [1, 4]: 0.655 | SH3BGRL3 NTX/UN [1, 4]: 1.224 | SPOCK2 NTX/UN [1, 4]: 1.194 | WDR75 NTX/UN [1, 4]: 0.830 | YWHAZ NTX/UN [1, 4]: 0.736 | CD69 expression in CD3+/CD8+ cells ([2]; 10 nM naltrexone (LDN)): increased | CD69 expression in CD3+/CD8+ cells ([2]; 10 uM naltrexone (NTX)): did not increase
